The values that follow are results of earlier work, collected in US20250255927A1, “COMPOSITIONS AND METHODS FOR ALLEVIATING ADVERSE EFFECTS FROM RESPONSIBLE ALCOHOL CONSUMPTION” (Cheers Health, Inc., priority 2023, published 2025).

Each structure is given as a SMILES string. Where only a bound is given, the exact number is not on record here.

Data set [1] relates to pain. The conditions noted are these: 1 g of salicin.
For data set [2] the following is noted: rat models.

As to `OCc1ccccc1O[C@@H]1O[C@H](CO)[C@@H](O)[C@H](O)[C@H]1O` [salicin], in data set [1], the “amount of aspirin with comparable pain relief effect” value is on record as roughly 620 mg.
With `CCNC(=O)CC[C@H](N)C(=O)O` [L-Theanine], the “time to reach the brain without any metabolic change” value in data set [2] was no more than 30 min.
